Laboratory results reported in US20170173002A1, “Compositions and Methods for Treating an Infection” (CMPD LICENSING, LLC, priority 2015, published 2017).

How the values were obtained:
[1] = system: Providencia rettgeri; experiment: Expected efficacy of antibiotic agents; settings: expected efficacy against Providencia rettgeri
[2] = system: Enterobacter aerogenes; experiment: Expected efficacy of antibiotic agents; settings: expected efficacy against Enterobacter aerogenes
[3] = system: Pseudomonas fluorescens; experiment: Expected efficacy of antibiotic agents; settings: expected efficacy against Pseudomonas fluorescens
[4] = system: Haemophilus parainfluenzae; experiment: Expected efficacy of antibiotic agents; settings: expected efficacy against Haemophilus parainfluenzae
[5] = system: Chlamydia pneumoniae; experiment: Expected efficacy of antibiotic agents; settings: expected efficacy against Chlamydia pneumoniae
[6] = system: Diphtheroids; experiment: Expected efficacy of antibiotic agents; settings: expected efficacy against Diphtheroids
[7] = system: Neisseria gonorrhoeae; experiment: Expected efficacy of antibiotic agents; settings: expected efficacy against Neisseria gonorrhoeae
[8] = system: Enterobacter cloacae; experiment: Expected efficacy of antibiotic agents; settings: expected efficacy against Enterobacter cloacae
[9] = system: Brucella species; settings: expected efficacy against Brucella species
[10] = system: Proteus mirabilis; experiment: Expected efficacy of antibiotic agents; settings: expected efficacy against Proteus mirabilis
[11] = system: Chlamydia trachomatis; experiment: Expected efficacy of antibiotic agents; settings: expected efficacy against Chlamydia trachomatis
[12] = system: Escherichia coli; experiment: Expected efficacy of antibiotic agents; settings: expected efficacy against Escherichia coli
[13] = system: Streptococcus pneumoniae; experiment: Expected efficacy of antibiotic agents; settings: expected efficacy against Streptococcus pneumoniae
[14] = system: Vibrio cholerae; experiment: Expected efficacy of antibiotic agents; settings: expected efficacy against Vibrio cholerae
[15] = system: Staphylococcus aureus (MSSA); experiment: Expected efficacy of antibiotic agents; settings: expected efficacy against Staphylococcus aureus (MSSA)
[16] = system: Streptococcus pyogenes; experiment: Expected efficacy of antibiotic agents; settings: expected efficacy against Streptococcus pyogenes
[17] = system: Clostridium difficile; experiment: Expected efficacy of antibiotic agents; settings: expected efficacy against Clostridium difficile
[18] = system: Serratia marcescens; experiment: Expected efficacy of antibiotic agents; settings: expected efficacy against Serratia marcescens
[19] = system: Legionella pneumophila; settings: expected efficacy against Legionella pneumophila
[20] = system: Klebsiella oxytoca; experiment: Expected efficacy of antibiotic agents; settings: expected efficacy against Klebsiella oxytoca
[21] = system: Pseudomonas aeruginosa; experiment: Expected efficacy of antibiotic agents; settings: expected efficacy against Pseudomonas aeruginosa
[22] = system: Enterococcus faecalis; experiment: Expected efficacy of antibiotic agents; settings: expected efficacy against Enterococcus faecalis
[23] = system: Streptococcus agalactiae; experiment: Expected efficacy of antibiotic agents; settings: expected efficacy against Streptococcus agalactiae
[24] = system: Bordetella pertussis; experiment: Expected efficacy of antibiotic agents; settings: expected efficacy against Bordetella pertussis
[25] = system: Neisseria meningitidis; experiment: Expected efficacy of antibiotic agents; settings: expected efficacy against Neisseria meningitidis
[26] = system: Bacteroides fragilis; experiment: Expected efficacy of antibiotic agents; settings: expected efficacy against Bacteroides fragilis
[27] = system: Proteus vulgaris; experiment: Expected efficacy of antibiotic agents; settings: expected efficacy against Proteus vulgaris
[28] = system: Methicillin resistant staph aureus (MRSA); experiment: Expected efficacy of antibiotic agents; settings: expected efficacy against Methicillin resistant staph aureus (MRSA)
[29] = system: Corynebacterium jeikeium; experiment: Expected efficacy of antibiotic agents; settings: expected efficacy against Corynebacterium jeikeium
[30] = system: Enterobacter sakazakii; experiment: Expected efficacy of antibiotic agents; settings: expected efficacy against Enterobacter sakazakii
[31] = system: Providencia stuartii; experiment: Expected efficacy of antibiotic agents; settings: expected efficacy against Providencia stuartii
[32] = system: Klebsiella (Calymmatobacterium) granulomatis; experiment: Expected efficacy of antibiotic agents; settings: expected efficacy against Klebsiella (Calymmatobacterium) granulomatis
[33] = system: Enterococcus faecium; experiment: Expected efficacy of antibiotic agents; settings: expected efficacy against Enterococcus faecium
[34] = system: Chlamydia psittaci; settings: expected efficacy against Chlamydia psittaci
[35] = system: Corynebacterium urealyticum; experiment: Expected efficacy of antibiotic agents; settings: expected efficacy against Corynebacterium urealyticum
[36] = system: Klebsiella pneumoniae; experiment: Expected efficacy of antibiotic agents; settings: expected efficacy against Klebsiella pneumoniae
[37] = system: Peptostreptococcus; experiment: Expected efficacy of antibiotic agents; settings: expected efficacy against Peptostreptococcus
[38] = system: Viridans group streptococci; experiment: Expected efficacy of antibiotic agents; settings: expected efficacy against Viridans group streptococci
[39] = system: Moraxella catarrhalis; experiment: Expected efficacy of antibiotic agents; settings: expected efficacy against Moraxella catarrhalis
[40] = system: Mycoplasma pneumoniae; experiment: Expected efficacy of antibiotic agents; settings: expected efficacy against Mycoplasma pneumoniae
[41] = system: Staphylococcus epidermidis; experiment: Expected efficacy of antibiotic agents; settings: expected efficacy against Staphylococcus epidermidis
[42] = system: Acinetobacter lwoffii; experiment: Expected efficacy of antibiotic agents; settings: expected efficacy against Acinetobacter lwoffii
[43] = system: Citrobacter freundii; experiment: Expected efficacy of antibiotic agents; settings: expected efficacy against Citrobacter freundii
[44] = system: Rickettsiae; settings: expected efficacy against Rickettsiae
[45] = system: Shigella dysenteriae; experiment: Expected efficacy of antibiotic agents; settings: expected efficacy against Shigella dysenteriae
[46] = system: Shigella boydii; experiment: Expected efficacy of antibiotic agents; settings: expected efficacy against Shigella boydii
[47] = system: Shigella sonnei; experiment: Expected efficacy of antibiotic agents; settings: expected efficacy against Shigella sonnei
[48] = system: Acinetobacter baumannii; experiment: Expected efficacy of antibiotic agents; settings: expected efficacy against Acinetobacter baumannii
[49] = system: Clostridium perfringens; settings: expected efficacy against Clostridium perfringens
[50] = system: Salmonella typhi; experiment: Expected efficacy of antibiotic agents; settings: expected efficacy against Salmonella typhi
[51] = system: Francisella tularensis; settings: expected efficacy against Francisella tularensis
[52] = system: Shigella flexneri; experiment: Expected efficacy of antibiotic agents; settings: expected efficacy against Shigella flexneri
[53] = system: Haemophilus ducreyi; experiment: Expected efficacy of antibiotic agents; settings: expected efficacy against Haemophilus ducreyi
[54] = system: Campylobacter jejuni; experiment: Expected efficacy of antibiotic agents; settings: expected efficacy against Campylobacter jejuni
[55] = system: Yersinia pestis; settings: expected efficacy against Yersinia pestis
[56] = system: Citrobacter diversus; experiment: Expected efficacy of antibiotic agents; settings: expected efficacy against Citrobacter diversus
[57] = system: Acinetobacter calcoaceticus; experiment: Expected efficacy of antibiotic agents; settings: expected efficacy against Acinetobacter calcoaceticus
[58] = system: Morganella morganii; experiment: Expected efficacy of antibiotic agents; settings: expected efficacy against Morganella morganii
[59] = system: Haemophilus influenzae; experiment: Expected efficacy of antibiotic agents; settings: expected efficacy against Haemophilus influenzae

Compound: Colistimethate
- Efficacy [1]: no
- Efficacy [2]: yes
- Efficacy [3]: yes
- Efficacy [4]: no
- Efficacy [5]: no
- Efficacy [6]: no
- Efficacy [7]: no
- Efficacy [8]: yes
- Efficacy [9]: no
- Efficacy [10]: no
- Efficacy [11]: no
- Efficacy [12]: yes
- Efficacy [13]: no
- Efficacy [14]: no
- Efficacy [15]: no
- Efficacy [16]: no
- Efficacy [17]: no
- Efficacy [18]: no
- Efficacy [19]: no
- Efficacy [20]: yes
- Efficacy [21]: yes
- Efficacy [22]: no
- Efficacy [23]: no
- Efficacy [24]: no
- Efficacy [25]: no
- Efficacy [26]: no
- Efficacy [27]: no
- Efficacy [28]: no
- Efficacy [29]: no
- Efficacy [30]: yes
- Efficacy [31]: no
- Efficacy [32]: yes
- Efficacy [33]: no
- Efficacy [34]: no
- Efficacy [35]: no
- Efficacy [36]: yes
- Efficacy [37]: no
- Efficacy [38]: no
- Efficacy [39]: no
- Efficacy [40]: no
- Efficacy [41]: no

Compound: CO/N=C(\C(=O)N[C@@H]1C(=O)N2C(C(=O)O)=C(CSc3nc(=O)c(=O)[nH]n3C)CS[C@H]12)c1csc(N)n1 [Ceftriaxone, ceftriaxone]
- Efficacy [1]: yes
- Efficacy [42]: no
- Efficacy [2]: yes
- Efficacy [4]: yes
- Efficacy [5]: no
- Efficacy [6]: no
- Efficacy [7]: yes
- Efficacy [43]: yes
- Efficacy [44]: no
- Efficacy [8]: yes
- Efficacy [10]: yes
- Efficacy [45]: yes
- Efficacy [11]: no
- Efficacy [12]: yes
- Efficacy [13]: yes
- Efficacy [14]: no
- Efficacy [46]: yes
- Efficacy [15]: yes
- Efficacy [16]: yes
- Efficacy [17]: no
- Efficacy [47]: yes
- Efficacy [18]: yes
- Efficacy [48]: no
- Efficacy [19]: no
- Efficacy [20]: yes
- Efficacy [21]: no
- Efficacy [22]: no
- Efficacy [49]: yes
- Efficacy [23]: yes
- Efficacy [24]: no
- Efficacy [25]: yes
- Efficacy [50]: yes
- Efficacy [51]: no
- Efficacy [52]: yes
- Efficacy [26]: yes
- Efficacy [53]: yes
- Efficacy [27]: yes
- Efficacy [28]: no
- Efficacy [54]: no
- Efficacy [55]: no
- Efficacy [29]: no
- Efficacy [56]: yes
- Efficacy [30]: yes
- Efficacy [57]: no
- Efficacy [31]: yes
- Efficacy [32]: yes
- Efficacy [33]: no
- Efficacy [34]: no
- Efficacy [35]: no
- Efficacy [36]: yes
- Efficacy [37]: yes
- Efficacy [38]: yes
- Efficacy [58]: yes
- Efficacy [39]: yes
- Efficacy [40]: no
- Efficacy [41]: yes
- Efficacy [59]: yes
